This is an account of results in ChEMBL document CHEMBL1136820, “The role of 2',3'-unsaturation on the antiviral activity of anti-HIV nucleosides against 3TC-resistant mutant (M184V)” (Bioorg Med Chem Lett, 2003).

For experiment [1], the system named is HIV-1 reverse transcriptase (Human immunodeficiency virus 1). The experiment is described as follows: Ratio for inhibition of HIV-1 RT to that of type and HIV-1 RT M184V mutant was determined.
For experiment [2], the target named is Human immunodeficiency virus type 1 reverse transcriptase (Human immunodeficiency virus 1) (UniProt Q72547). The experiment in a line: In vitro antiviral activity against HIV-1 Reverse transcriptase wild type.
The subject of experiment [3] is Human immunodeficiency virus type 1 reverse transcriptase (Human immunodeficiency virus 1), Q72547 [M184V]. The experiment is described as follows: In vitro antiviral activity against HIV-1 Reverse transcriptase M184V mutant.

Usually EC90 stands for the point of the concentration-response curve where the effect stands at 90%.

Regarding `Nc1nc(=O)n([C@@H]2C=C[C@H](CO)O2)cc1F`, in experiment [1], the FI worked out at 0.8.

Consider `Nc1ccn([C@@H]2O[C@H](CO)C=C2F)c(=O)n1`, for which the FI in experiment [1] was 0.23. For the same molecule, the results for the EC90 in experiment [2] and in experiment [3] were 8 µM and 1.8 µM, respectively.

Take `Nc1ccn(C2SC(CO)C=C2F)c(=O)n1` (configuration not stated): the FI in experiment [1] worked out at 25. Besides, the values for the EC90 in experiment [2] and in experiment [3] were 5 µM and 125 µM, respectively.
